This passage reports IC50 results from BindingDB's records for patent US12391702 (Bristol-Myers Squibb, 2025).

The test has as its target T1, Interleukin-1 receptor-associated kinase 4 (Homo sapiens, UniProt Q9NWZ3).
T1 sequence (Q9NWZ3 whole entry): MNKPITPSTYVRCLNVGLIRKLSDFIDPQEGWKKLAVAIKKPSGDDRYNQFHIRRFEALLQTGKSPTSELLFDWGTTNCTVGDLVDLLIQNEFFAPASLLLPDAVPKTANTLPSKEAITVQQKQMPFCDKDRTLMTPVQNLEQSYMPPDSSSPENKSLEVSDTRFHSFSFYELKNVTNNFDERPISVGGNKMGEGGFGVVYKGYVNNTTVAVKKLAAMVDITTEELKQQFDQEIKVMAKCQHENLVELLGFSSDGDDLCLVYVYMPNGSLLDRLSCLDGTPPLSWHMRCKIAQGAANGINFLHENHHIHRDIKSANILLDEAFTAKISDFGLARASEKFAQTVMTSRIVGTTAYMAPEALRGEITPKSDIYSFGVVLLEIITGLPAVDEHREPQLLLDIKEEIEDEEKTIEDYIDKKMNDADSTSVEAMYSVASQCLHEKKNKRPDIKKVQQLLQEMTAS
The test is described as follows: IRAK4 Inhibition Assay. How it is done: The assays were performed in U-bottom 384-well plates. The final assay volume was 30 μL prepared from 15 μL additions of enzyme and substrates (fluoresceinated peptide and ATP) and test compounds in assay buffer (20 mM HEPES pH 7.2, 10 mM MgCl2, 0.015% Brij 35 and 4 mM DTT). The reaction was initiated by the combination of IRAK4 with substrates and test compounds. The reaction mixture was incubated at room temperature for 60 min. and terminated by adding 45 μL of 35 mM EDTA to each sample. The reaction mixture was analyzed on the Caliper LABCHIP 3000 (Caliper, Hopkinton, MA) by electrophoretic separation of the fluorescent substrate and phosphorylated product. Inhibition data were calculated by comparison to no enzyme control reactions for 100% inhibition and vehicle-only reactions for 0% inhibition. The final concentrations of reagents in the assays are ATP, 500 μM; FL-IPTSPITTTYFFFKKK peptide 1.5 μM; IRAK4, 0.6 nM; and DMSO, 1.6%.

pIC50: −log10 of the molar value.

As for `CC(C)Nc1c(C(=O)NC[C@@H](F)C(C)(C)O)cnc2c1Oc1cc(C#N)ccc1O2` [US12391702, Example 1], the pIC50 is 5.93.

As usually defined, the pIC50 is the IC50 on a negative log10 scale, so that one unit is a factor of ten.
